Where “and” joins values, the source holds several entries; their conditions need not be identical. Equal values may be shown once.
Key:
[1] = tested on: L1210 cells; test: Phototoxicity in L1210 cells, MTT viability assay; type: cell-based; conditions: phototoxicity
Procedure: The above described compounds were tested in vitro for phototoxicity and dark toxicity in L1210 cells as described in the Example section below. Twenty four compounds which were tested for cytotoxicity are listed in Table 3 below along with BPD-MA.
Phototoxicity was determined with L11210 cells in the presence of the compound as follows: the L1210 cells were exposed to varying concentrations of the compounds in 96-well microtiter plates for one hour at 37° C. and 5% CO2. No fetal calf serum (FCS) was added at this time. The plate was then illuminated for one hour after which a 10% aqueous FCS solution was added to the wells. The plates were then returned to the CO2 incubator overnight. After incubation, the cells were assayed for viability using the MTT assay (Mossman, T. J. Immunol. Meth. 1983, 65, 55).

[2] = tested on: tumors; conditions: in sensitizing tumors; cited from earlier work
[3] = tested on: tumors; conditions: cited from earlier work
[4] = tested on: tumor; conditions: in vivo; cited from earlier work
[5] = tested on: serum proteins; conditions: normal dose used for PDT (3–5 mg/kg body weight); cited from earlier work

C=Cc1c(C)c2cc3nc(cc4[nH]c(cc5nc(cc1[nH]2)C(C)=C5CCC(=O)O)c(CCC(=O)OC)c4C)C1(C)C3=CC=C(C(=O)OC)C1C(=O)OC (centres unmarked) [BPDMA, reference compound]
LD50 [1]: 0.026 µM | LD50 ([1]; L1210 cells, 1 h exposure without FCS, 1 h illumination, MTT): 0.026 M and 19 ng/mL | LD50 ([1]; L1210 cells, 1 h exposure without FCS, 1 h illumination, MTT, listed as BPD-MA): 19 ng/mL | times more potent than HpD [2]: 70 | times more potent than Photofrin™ [2]: 45

Oc1cccc(-c2c3nc(c(-c4cccc(O)c4)c4ccc([nH]4)c(-c4cccc(O)c4)c4nc(c(-c5cccc(O)c5)c5ccc2[nH]5)CC4)C=C3)c1 [Tetra(m-hydroxyphenyl)chlorin]
LD50 ([3]; in vivo bioassays): 3 mg/kg | times more effective than HpD in destroying tumors ([3]; in vivo): 25–30 | recurrence [4]: 10% | side effects [4]: extended skin sensitivity, severe chest pains and loss of appetite | tumor necrosis [4]: 90%

CC1=C(CCC(=O)O)c2cc3[nH]c(cc4nc(cc5[nH]c(cc1n2)c(C)c5C(C)O)C(C)=C4C(C)O)c(C)c3CCC(=O)O (centres unmarked) [hematoporphyrin]
complexed by serum proteins [5]: at least 95%

Reference: patent publication US7022843B1, “β,β′-dihydroxy meso-substituted chlorins, isobacteriochlorins, and bacteriochlorins” (priority 1999, dated 2006)
